Measured values from article PMC5566973 (Frontiers in Pharmacology, 2017).

Legend:
BCRP = assay: Bidirectional transport in MDCK cell monolayers with selective transporter inhibitors or substrates; assay type: in vitro ADME, canine; conditions: dog
Description: (§1) Caco-2, MDCK and MDCK-MRP2 cells were donated by Prof. Yan Xie and Yueming Ma from Shanghai University of Traditional Chinese Medicine. The cells were grown in culture dishes (Corning® Costar, Cambridge, MA, USA) using DMEM supplemented with 10% FBS, 1% NEAA and 1% penicillin-streptomycin solution. The cells were cultured in 5% CO2 and […] with 90% relative humidity at 37°C. The medium was replaced every other day during incubation. The cells were passaged every 3–4 days between 70 and 80% confluence at a 1:5 split ratio using 0.25% trypsin-EDTA. For the transport experiments, the cells from passages between 30 and 45 were seeded at 1 × 10^5 cells/cm^2 onto permeable polycarbonate inserts (0.45 μm pore size, seeding surface of 0.6 cm^2, Millipore, MA, USA) in 24-well plastic plates. The media in the culture plates were changed every other day for the first week after seeding and were replaced daily afterward. […] The cells were used for the transport experiments 21–28 (Caco-2) or 5–7 (MDCK and MDCK-MRP2) days after seeding, and only monolayers with a TEER-value above 420 Ω cm^2 were used during the studies.
(§2) The apical (AP) and basolateral (BL) sides are typical of polarized Caco-2, MDCK and MDCK-MRP2 epithelial cells. Before the experiments, the polarized cell monolayers were washed twice with warm HBSS solution and subsequently preincubated (37°C, 30 min). Afterward, HBSS solution on both sides of the cell monolayers was removed using a mini desktop vacuum pump. […] The final DMSO concentration in the HBSS or drug mixture was below 0.5%. The monolayers were incubated at 37°C, and 100 μL samples were taken at 30, 60, 90, and 120 min from the acceptor compartment and immediately replaced with the same volume of prewarmed fresh blank HBSS. TEER measurements for assessing the membrane integrity took place before and after the experiments.
(§3) The apparent permeability coefficients (Papp) and ER were calculated as Equations (2) and (3): […]
(§4) where dQ/dt is the steady-state flux, A is the membrane surface area, and C0 is the initial drug concentration in the donor compartment. PappBA is the Papp-value measured in BL to AP direction and PappAB is the Papp-value measured in AP to BL direction. It indicated the involvement of an active transport process when the ER-value is above 1.5 (Hubatsch et al., [2007]).

MDCK cell monolayers = assay: as above; assay type: in vitro ADME, canine; conditions: 2 μM
Description: as §1, §2, §3, §4

OATs = assay: as above; assay type: in vitro ADME, canine; conditions: dog, with cimetidine 0.05 mM (50 μM), + Cimetidine 0.05 mM (OATs)
Description: as §1, §2, §3, §4

[1] = test system: MDCK-MRP2 cell monolayers; assay: Bidirectional transport in MDCK-MRP2 cell monolayers with MRP2 inhibitors; assay type: in vitro ADME, canine; conditions: MDCK-MRP2, 2 μM
Description: as §1, §2, §3, §4

MRP2 [2] = assay: as above; assay type: in vitro ADME, canine; conditions: dog, MDCK-MRP2, 2 μM
Description: as §1, §2, §3, §4

MRP2 [3] = assay: Western blot analysis of MRP2 protein expression in Caco-2 cells; assay type: cell-based, human; conditions: 48 h, 2 and 5 μM, compared with the control group
Description: The Caco-2 cells were seeded into 6-well plates at a density of 1 × 10^5 cells/mL and cultured for 24 h. […] Protein lysate was collected by centrifugation at 12,000 rpm at 4°C for 10 min, and the total protein content was determined using BCA protein assay kit. Proteins were then mixed with a quarter volume of loading buffer and heated at 100°C for 5 min. Approximately 20 μg of the total protein content was separated by SDS-PAGE through an 8% acrylamide gel and transferred to PVDF membranes. After washing with PBST, the membrane was blocked with 5% fat-free milk in PBST for 1 h at room temperature (RT) and then incubated with anti-MRP2 (1:500) and anti-GAPDH (1:5,000) overnight at 4°C. Afterwards, the membranes were rinsed with PBST and incubated with HRP-conjugated anti-rabbit (1:5,000) secondary antibody for 2 h at RT. After complete washing with PBST, the protein bands were visualized with ECL prime kit (GE Healthcare, NA, UK).

[4] = Urinary and fecal excretion in rats; assay type: in vivo, Sprague-Dawley rats; conditions: for Cumulative excretion of the analyte, SUM of urine and feces: within 72 h
Description: Access to water was maintained all the time. Samples including blank urine and feces before dosing, urine and feces from 0 to 24 h, 24 to 48 h, and 48 to 72 h after dosing were collected and stored at −80°C until analysis.
Urine samples were thawed and an aliquot of 100 μL was processed for detection as described in Section Drug Analysis. Feces were homogenized and then weighed, added 6-folds of acetonitrile, extracted by ultrasonic wave for 1 h and then centrifuged. An aliquot of 100 μL was also processed for detection as described in Section Drug Analysis.

[5] = parameters: method as in Zhang, 2013; Shi et al., 2014; conditions: dogs, oral total alkaloid extracts from P. harmala 140 mg/kg; ref Zhang, 2013; Shi et al., 2014; cited from earlier work
[6] = Control (no inhibitor or substrate)
[7] = with MK571 0.05 mM (50 μM), + MK571 0.05 mM (MRP2)
[8] = with probenecid 0.2 mM (200 μM), + Probenecid 0.2 mM (MRP2)
[9] = after oral harmaline 40.0 mg/kg, 24 h
[10] = after oral harmaline 40.0 mg/kg, 48 h
[11] = after oral harmaline 40.0 mg/kg, 72 h
[12] = after oral harmine 40.0 mg/kg, 24 h
[13] = after oral harmine 40.0 mg/kg, 48 h
[14] = after oral harmine 40.0 mg/kg, 72 h

## COc1ccc2c(c1)[nH]c1c(C)nccc12 [Harmine]
BCRP; with Ko143 0.01 mM (10 μM), + Ko143 0.01 mM (BCRP)
  Papp B→A at 120 min, 2 μM: 7.05 ± 0.16 ×10⁻⁶ cm/s
BCRP; with apigenin 0.025 mM (25 μM), + Apigenin 0.025 mM (BCRP)
  Papp B→A at 120 min, 2 μM: 6.83 ± 1.01 ×10⁻⁶ cm/s
MDCK cell monolayers; + Apigenin 0.025 mM (BCRP)
  Modulatory effect: −
  PappAB: 4.48 ± 0.24 1 × 10^−6 cm/s
MDCK cell monolayers; + Cimetidine 0.05 mM (OATs)
  Modulatory effect: −
  PappBA: 7.43 ± 0.62 1 × 10^−6 cm/s
MDCK cell monolayers; + ES 0.05 mM (OATPs)
  Modulatory effect: −
  PappAB: 4.59 ± 0.22 1 × 10^−6 cm/s
  PappBA: 7.17 ± 0.68 1 × 10^−6 cm/s
MDCK cell monolayers; + Gly-Sar 10 mM (PEPT1)
  Modulatory effect: −
  PappAB: 4.59 ± 0.12 1 × 10^−6 cm/s
  PappBA: 7.50 ± 0.34 1 × 10^−6 cm/s
MDCK cell monolayers; + Ko143 0.01 mM (BCRP)
  Modulatory effect: −
  PappAB: 4.50 ± 0.48 1 × 10^−6 cm/s
MDCK cell monolayers; + MK571 0.05 mM (MRP2)
  Modulatory effect: +
MDCK cell monolayers; + NaN3 10 mM (ATP)
  Modulatory effect: +
MDCK cell monolayers; + Phloretin 0.3 mM (MCTs)
  Modulatory effect: −
  PappAB: 4.51 ± 0.16 1 × 10^−6 cm/s
  PappBA: 7.47 ± 0.27 1 × 10^−6 cm/s
MDCK cell monolayers; + Phloridzin 0.5 mM (SGLT1)
  Modulatory effect: +
  PappAB: 3.89 ± 0.36^* 1 × 10^−6 cm/s
MDCK cell monolayers; + Probenecid 0.2 mM (MRP2)
  Modulatory effect: +
  PappBA: 7.24 ± 0.27 1 × 10^−6 cm/s
MDCK cell monolayers; + Quinidine 0.1 mM (MDR1)
  Modulatory effect: −
MDCK cell monolayers; + Sodium vanadate 0.05 mM (Na^+)
  Modulatory effect: +
MDCK cell monolayers; + TEA 5 mM (OCTs/OCTNs)
  Modulatory effect: +
MDCK cell monolayers; + Verapamil 0.1 mM (MDR1)
  Modulatory effect: −
  PappAB: 4.59 ± 1.34 1 × 10^−6 cm/s
MDCK cell monolayers; [6]
  PappAB: 4.60 ± 0.25 1 × 10^−6 cm/s
  PappBA: 7.32 ± 0.19 1 × 10^−6 cm/s
OATs
  Papp A→B at 120 min, 2 μM: 4.74 ± 0.13 ×10⁻⁶ cm/s
[1]; + MK571 0.05 mM (MRP2)
  Modulatory effect: +
[1]; + Probenecid 0.2 mM (MRP2)
  Modulatory effect: +
MRP2 [2]; [7]
  Papp A→B at 120 min, 2 μM: 20.8 ± 1.49 ×10⁻⁶ cm/s
  Papp B→A at 120 min, 2 μM: 11.8 ± 1.25 ×10⁻⁶ cm/s
MRP2 [2]; [8]
  Papp A→B at 120 min, 2 μM: 10.1 ± 1.69 ×10⁻⁶ cm/s
  Papp B→A at 120 min, 2 μM: 8.62 ± 1.05 ×10⁻⁶ cm/s
MRP2 [2]; Control (no inhibitor)
  Papp A→B at 120 min, 2 μM: 3.55 ± 0.4 ×10⁻⁶ cm/s
  Papp B→A at 120 min, 2 μM: 8.18 ± 0.98 ×10⁻⁶ cm/s
MRP2 [3]
  effect on the expression of MRP2: slightly up-regulate
[4]; [9]
  Cumulative excretion in feces (%) of the analyte: 0.01 ± 0.01%
  Cumulative excretion in urine (%) of the analyte: 0.03 ± 0.01%
[4]; [10]
  Cumulative excretion in feces (%) of the analyte: 0.02 ± 0.01%
  Cumulative excretion in urine (%) of the analyte: 0.04 ± 0.01%
[4]; [11]
  Cumulative excretion in feces (%) of the analyte: 0.02 ± 0.01%
  Cumulative excretion in urine (%) of the analyte: 0.05 ± 0.01%
[4]; after oral harmaline 40.0 mg/kg
  Cumulative excretion of the analyte, SUM of urine and feces: 0.07 ± 0.01%
[4]; [12]
  Cumulative excretion in feces (%) of the analyte: 0.57 ± 0.37%
  Cumulative excretion in urine (%) of the analyte: 0.02 ± 0.02%
[4]; [13]
  Cumulative excretion in feces (%) of the analyte: 0.65 ± 0.36%
  Cumulative excretion in urine (%) of the analyte: 0.02 ± 0.03%
[4]; [14]
  Cumulative excretion in feces (%) of the analyte: 0.65 ± 0.36%
  Cumulative excretion in urine (%) of the analyte: 0.03 ± 0.03%
[4]; after oral harmine 40.0 mg/kg
  Cumulative excretion of the analyte, SUM of urine and feces: 0.69 ± 0.36%
[5]
  F-value (absolute bioavailability): 5.33%
